≈ marks a conversion by molar mass, not a printed value.
What was measured:
[1] = tested on: S. intermedius (1051997); experiment: MIC determination by microplate dilution, S. intermedius animal strain; assay type: cell-based, Staphylococcus intermedius; details: Staphylococcus intermedius, Gram-positive, Mueller-Hinton medium, 24 h, 37° C.
Method: (§1) 1) Preparation of the Preculture
(§2) A negative control (2 mL of sterile culture medium)
(§3) A positive control (1940 μL of culture medium+40 μL of DMSO+20 μL of bacterial suspension) from a thawed biological strain (the biological strains are stored at −80° C. in glycerol).
(§4) The tubes were incubated at 37° C. for 24 hours at 100 rpm.
(§5) The microorganisms were handled under a type L2 laboratory fume cupboard and, before any handling, a UV cycle was programmed and only sterile material was used. […] The chemical compounds to be tested were prepared in a DMSO/methanol mixture (50/50) at a concentration of 5 mg/mL.
(§6) 2) Preparation of the Microplate for the Determination of the Minimum Inhibitory Concentration (MIC)
(§7) After 24 hours of incubation, a measurement of the optical density was taken using a spectrophotometer at 600 nm, collecting 100 μL of the bacterial suspension diluted in 900 μL of the sterile culture medium. This test required the use of a 96-well plate and the required volume of the microbial suspension to be seeded was calculated for an OD corresponding to a value equal to 0.01 in each well. In this plate, the first line corresponded to the negative control (195 μL of sterile culture medium in each well), the second line to the positive control (seeded culture medium supplemented with 2% of DMSO), the third line was loaded twice with bacterial suspension, 8 μL of test product were placed in each well. Thereafter, a 0.5 cascade dilution was performed from this line.
(§8) The first column served as inhibition control. A sterile filter was then placed on the microplate, allowing the passage of gases but not of contaminants. The microplate was incubated at 37° C. under a humid atmosphere for 24 hours.
(§9) NB: The medium used is Mueller-Hinton (MH) medium for bacteria. All the tests were performed in duplicate.
(§10) 4) Reading of the Results
(§11) After incubation, the filter was replaced with a transparent film, and an OD reading was then taken in an iEMS plate spectrophotometer at 620 nm. Calculation of the minimum inhibitory concentration (MIC) was performed.

[2] = tested on: P. aeruginosa (1051575); experiment: Potentiation of the doxycycline activity at 2 μg/mL; assay type: cell-based, Pseudomonas aeruginosa; details: in combination with doxycycline 2 μg/mL; 24 h, 37°
[3] = tested on: P. aeruginosa (1051575); experiment: MIC determination by microplate dilution, P. aeruginosa animal strain; assay type: cell-based, Pseudomonas aeruginosa; details: Pseudomonas aeruginosa, Gram-negative, Mueller-Hinton medium, 24 h, 37° C.
Method: as §1, §2, §3, §4, §5, §6, §7, §8, §9, §10, §11

[4] = tested on: S. aureus ATCC25923; experiment: MIC determination by microplate dilution, S. aureus human strain; assay type: cell-based, Staphylococcus aureus; details: Staphylococcus aureus, ATCC25923, Gram-positive, Mueller-Hinton medium, 24 h, 37° C.
Method: as §1, §2, §3, §4, §5, §6, §7, §8, §9, §10, §11

[5] = tested on: P. aeruginosa ATCC27853; experiment: MIC determination by microplate dilution, P. aeruginosa human strain; assay type: cell-based, Pseudomonas aeruginosa; details: Pseudomonas aeruginosa, ATCC27853, Gram-negative, Mueller-Hinton medium, 24 h, 37° C.
Method: as §1, §2, §3, §4, §5, §6, §7, §8, §9, §10, §11

[6] = tested on: E. faecalis ATCC29212; experiment: MIC determination by microplate dilution, E. faecalis human strain; assay type: cell-based, Enterococcus faecalis; details: Enterococcus faecalis, ATCC29212, Gram-positive, Mueller-Hinton medium, 24 h, 37° C.
Method: as §1, §2, §3, §4, §5, §6, §7, §8, §9, §10, §11

[7] = tested on: E. coli (1956); experiment: MIC determination by microplate dilution, E. coli animal strain; assay type: cell-based, Escherichia coli; details: Escherichia coli, Gram-negative, Mueller-Hinton medium, 24 h, 37° C.
Method: as §1, §2, §3, §4, §5, §6, §7, §8, §9, §10, §11

[8] = tested on: E. coli ATCC28922; experiment: MIC determination by microplate dilution, E. coli human strain; assay type: cell-based, Escherichia coli; details: Escherichia coli, ATCC28922, Gram-negative, Mueller-Hinton medium, 24 h, 37° C.
Method: as §1, §2, §3, §4, §5, §6, §7, §8, §9, §10, §11

[9] = tested on: CHO-K1 cells; experiment: WST1 cytotoxicity test on CHO-K1 cells; assay type: cell-based, Chinese hamster; details: Cricetulus griseus, CHO-K1, 24 h, read-out: IC50 (μg/mL) CHO
Method: Test WST1 was used to measure the cytotoxic activity of the products. This is a colorimetric test which makes it possible to measure the viability and the degree of cell proliferation. It is based on cleavage of the colorless tetrazolium salts WST-1 (4-[3-(4-iodophenyl)-2-(4-nitrophenyl)-2H-5-tetrazolio]-1,3-benzene disulfonate) with mitochondrial dehydrogenases to the yellow-colored formazan derivative, which may be quantified by spectrophotometry at 420-480 nm.
The WST1 test was performed on Chinese hamster ovary cells. The CHO-K1 cells (ATCC, USA) are kept in culture on McCoy's 5A medium supplemented with 10% fetal calf serum, 2 mM of L-glutamine and a mixture of penicillin-streptomycin (100 U/ml: 10 μg/mL). The culture is incubated at 37° C. under an atmosphere enriched in CO2 (5%), and subcultured every two days.
The cells are transferred into 96-well plates (25 000 cells/mL) in whole McCoy's 5A medium, and maintained for 24 hours at 37° C. under a humid atmosphere enriched in CO2 (5%). Increasing concentrations of test products are added to the wells in double tests and 8 growth controls containing the cells in the medium alone are included in each series of tests. After 24 hours at 37° C. (5% CO2), the culture medium is removed, the cells are rinsed in phosphate buffer (PBS) and 50 μL of PBS containing 10% of reagent WST1 are added to each well. After 20 minutes of incubation at 37° C., the results are read by spectrophotometry at 450 nm.
The results are expressed in dose-response relationships, modeled by nonlinear regression analysis using the TableCurve software. The 50% inhibitory concentration (IC50) represents the concentration of product that is capable of reducing the cell viability by 50%.

[10] = tested on: S. aureus (340); experiment: MIC determination by microplate dilution, S. aureus animal strain; assay type: cell-based, Staphylococcus aureus; details: Staphylococcus aureus, Gram-positive, Mueller-Hinton medium, 24 h, 37° C.
Method: as §1, §2, §3, §4, §5, §6, §7, §8, §9, §10, §11

| Compound | MIC [1] [µg/mL] | MIC - P. aeruginosa (1051575): content of compound of formula (I) to restore the doxycycline activity (at 2 μg/mL) [2] [µg/mL] | MIC [3] [µg/mL] | MIC [4] [µg/mL] | MIC [5] [µg/mL] | MIC [6] [µg/mL] | MIC [7] [µg/mL] | MIC [8] [µg/mL] | IC50 [9] [µg/mL] | MIC [10] [µg/mL] |
| --- | --- | --- | --- | --- | --- | --- | --- | --- | --- | --- |
| COC(=O)CC[C@@H](C)[C@H]1CCC2C3C(CC[C@@]21C)[C@@]1(C)CC[C@H](NCCCNCCCN)CC1C[C@@H]3O (stereo partly drawn) [(13), methyl 3β-norspermidinoursodeoxycholate] | 7 (≈ 13.5 µM) | 7 | 55 (≈ 106 µM) | 27 (≈ 51.9 µM) | 28 (≈ 53.9 µM) | 28 (≈ 53.9 µM) | 55 (≈ 106 µM) | 55 (≈ 106 µM) | 70 (≈ 135 µM) | 14 (≈ 26.9 µM) |
| CC(C)OC(=O)CC[C@@H](C)[C@H]1CCC2C3C(CC[C@@]21C)[C@@]1(C)CC[C@H](NCCCNCCCNCCCN)CC1C[C@@H]3O (stereo partly drawn) [(51), isopropyl 3β-norsperminoursodeoxycholate] | 4 (≈ 6.61 µM) | 2 | 30 (≈ 49.6 µM) | 15 (≈ 24.8 µM) | 30 (≈ 49.6 µM) | 62 (≈ 102 µM) | 62 (≈ 102 µM) | 30 (≈ 49.6 µM) | 30 (≈ 49.6 µM) | 15 (≈ 24.8 µM) |
| COC(=O)CC[C@@H](C)[C@H]1CCC2C3CCC4C[C@@H](NCCCNCCCN)CC[C@]4(C)C3C[C@H](O)[C@@]21C (stereo partly drawn) [(4), methyl 3β-norspermidinodeoxycholate] | 1 (≈ 1.92 µM) | 3 | 3 (≈ 5.77 µM) | 2 (≈ 3.85 µM) | 3 (≈ 5.77 µM) | 3 (≈ 5.77 µM) | – | 3 (≈ 5.77 µM) | 20 (≈ 38.5 µM) | 3 (≈ 5.77 µM) |
| CC(C)OC(=O)CC[C@@H](C)[C@H]1CCC2C3C(C[C@H](O)[C@@]21C)[C@@]1(C)CC[C@H](NCCCNCCCN)CC1C[C@H]3O (stereo partly drawn) [(7), isopropyl 3β-norspermidinocholate] | 28 (≈ 49.7 µM) | 4 | 30 (≈ 53.2 µM) | 28 (≈ 49.7 µM) | 30 (≈ 53.2 µM) | 28 (≈ 49.7 µM) | > 50 | 28 (≈ 49.7 µM) | 110 (≈ 195 µM) | – |
| CC(C)OC(=O)CC[C@@H](C)[C@H]1CCC2C3CCC4C[C@@H](NCCCNCCCNCCCN)CC[C@]4(C)C3C[C@H](O)[C@@]21C (stereo partly drawn) [Compound (1), isopropyl 3β-norsperminodeoxycholate] | 2 (≈ 3.31 µM) | 2 | 2 (≈ 3.31 µM) | 4 (≈ 6.61 µM) | 8 (≈ 13.2 µM) | 8 (≈ 13.2 µM) | 10 (≈ 16.5 µM) | 8 (≈ 13.2 µM) | 50 (≈ 82.6 µM) | 2 (≈ 3.31 µM) |
| COC(=O)CC[C@@H](C)[C@H]1CCC2C3CCC4C[C@@H](NCCCNCCCNCCCN)CC[C@]4(C)C3C[C@H](O)[C@@]21C (stereo partly drawn) [Compound (3), methyl 3β-norsperminodeoxycholate] | 1 (≈ 1.73 µM) | 4 | 2 (≈ 3.47 µM) | 2 (≈ 3.47 µM) | 2 (≈ 3.47 µM) | 2 (≈ 3.47 µM) | 14 (≈ 24.3 µM) | 29 (≈ 50.3 µM) | 6 (≈ 10.4 µM) | 4 (≈ 6.93 µM) |
| COC(=O)CC[C@@H](C)[C@H]1CCC2C3C(CC[C@@]21C)[C@@]1(C)CC[C@H](NCCCNCCCN)CC1C[C@H]3O (stereo partly drawn) [(9), methyl 3β-norspermidinochenodeoxycholate] | 7 (≈ 13.5 µM) | 3 | 26 (≈ 50 µM) | 13 (≈ 25 µM) | 26 (≈ 50 µM) | 26 (≈ 50 µM) | 26 (≈ 50 µM) | 26 (≈ 50 µM) | 70 (≈ 135 µM) | 7 (≈ 13.5 µM) |
| COC(=O)CC[C@@H](C)[C@H]1CCC2C3C(CC[C@@]21C)[C@@]1(C)CC[C@H](NCCNCCNCCNCCNCCN)CC1C[C@H]3O (stereo partly drawn) [(22), methyl 3β-(pentaethylenehexamine)chenodeoxycholate] | 2 (≈ 3.22 µM) | 4 | 31 (≈ 49.9 µM) | 16 (≈ 25.8 µM) | 31 (≈ 49.9 µM) | 8 (≈ 12.9 µM) | 8 (≈ 12.9 µM) | 31 (≈ 49.9 µM) | 60 (≈ 96.6 µM) | 4 (≈ 6.44 µM) |
| COC(=O)CC[C@@H](C)[C@H]1CCC2C3CCC4C[C@@H](NCCNCCNCCNCCNCCN)CC[C@]4(C)C3C[C@H](O)[C@@]21C (stereo partly drawn) [(20), methyl 3β-(pentaethylenehexamine)deoxycholate] | 1 (≈ 1.61 µM) | 4 | 8 (≈ 12.9 µM) | 4 (≈ 6.44 µM) | 8 (≈ 12.9 µM) | 16 (≈ 25.8 µM) | 14 (≈ 22.5 µM) | 8 (≈ 12.9 µM) | 90 (≈ 145 µM) | 6 (≈ 9.66 µM) |
| CC(C)OC(=O)CC[C@@H](C)[C@H]1CCC2C3C(C[C@H](O)[C@@]21C)[C@@]1(C)CC[C@H](NCCCNCCCNCCCN)CC1C[C@H]3O (stereo partly drawn) [Compound (6), isopropyl 3β-norsperminocholate] | 16 (≈ 25.8 µM) | 4 | 30 (≈ 48.3 µM) | 8 (≈ 12.9 µM) | 30 (≈ 48.3 µM) | > 60 | 30 (≈ 48.3 µM) | 30 (≈ 48.3 µM) | 90 (≈ 145 µM) | 8 (≈ 12.9 µM) |
| CC(C)OC(=O)CC[C@@H](C)[C@H]1CCC2C3C(CC[C@@]21C)[C@@]1(C)CC[C@H](NCCNCCNCCNCCNCCN)CC1C[C@H]3O (stereo partly drawn) [(23), isopropyl 3β-(pentaethylenehexamine)chenodeoxycholate] | 8 (≈ 12.3 µM) | 8 | 64 (≈ 98.6 µM) | 16 (≈ 24.7 µM) | 64 (≈ 98.6 µM) | 16 (≈ 24.7 µM) | 32 (≈ 49.3 µM) | 16 (≈ 24.7 µM) | – | 16 (≈ 24.7 µM) |
| CC(C)OC(=O)CC[C@@H](C)[C@H]1CCC2C3CCC4C[C@@H](NCCCN(C)CCCN)CC[C@]4(C)C3C[C@H](O)[C@@]21C (stereo partly drawn) [(30), isopropyl 3β-(bis(3-aminopropyl)methylamine)deoxycholate] | 14 (≈ 24.9 µM) | 7 | 56 (≈ 99.7 µM) | 28 (≈ 49.8 µM) | 56 (≈ 99.7 µM) | 56 (≈ 99.7 µM) | 56 (≈ 99.7 µM) | 28 (≈ 49.8 µM) | – | 28 (≈ 49.8 µM) |
